Measurements published in US9067894B1, “Compound, composition, and method of activating GIRK potassium channel and use of same for treating conditions of interest” (Vanderbilt University, priority 2013, dated 2015).
Read-outs that look alike come from different tables or passages of the source.

How the values were obtained:
Nicotinic acetylcholine = experiment: Radioligand displacement (Ricerca), second nicotinic entry; assay type: binding, human; conditions: 10 μM; second Nicotinic acetylcholine line
Dopamine D4.2 = molecular target: T1, Dopamine D4.2 (Homo sapiens, UniProt P21917, DEL265-296); experiment: Radioligand displacement (Ricerca); assay type: binding
T1 construct: Ricerca
T1 sequence (P21917 with tags, fused parts or gaps DEL265-296): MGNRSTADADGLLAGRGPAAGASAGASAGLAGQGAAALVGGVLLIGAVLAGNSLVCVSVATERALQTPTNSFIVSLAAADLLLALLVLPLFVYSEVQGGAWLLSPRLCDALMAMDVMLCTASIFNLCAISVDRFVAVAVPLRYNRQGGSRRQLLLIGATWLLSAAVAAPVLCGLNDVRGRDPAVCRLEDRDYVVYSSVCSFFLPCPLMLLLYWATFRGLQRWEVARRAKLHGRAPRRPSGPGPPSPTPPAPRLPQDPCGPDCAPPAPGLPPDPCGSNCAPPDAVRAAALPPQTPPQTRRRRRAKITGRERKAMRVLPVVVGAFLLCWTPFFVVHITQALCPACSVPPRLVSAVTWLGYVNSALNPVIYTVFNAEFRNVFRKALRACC

Estrogen ERα = molecular target: T2, Estrogen ERα (Homo sapiens, UniProt P03372); experiment: Radioligand displacement (Ricerca); assay type: binding
T2 construct: Ricerca
T2 sequence (P03372 whole entry): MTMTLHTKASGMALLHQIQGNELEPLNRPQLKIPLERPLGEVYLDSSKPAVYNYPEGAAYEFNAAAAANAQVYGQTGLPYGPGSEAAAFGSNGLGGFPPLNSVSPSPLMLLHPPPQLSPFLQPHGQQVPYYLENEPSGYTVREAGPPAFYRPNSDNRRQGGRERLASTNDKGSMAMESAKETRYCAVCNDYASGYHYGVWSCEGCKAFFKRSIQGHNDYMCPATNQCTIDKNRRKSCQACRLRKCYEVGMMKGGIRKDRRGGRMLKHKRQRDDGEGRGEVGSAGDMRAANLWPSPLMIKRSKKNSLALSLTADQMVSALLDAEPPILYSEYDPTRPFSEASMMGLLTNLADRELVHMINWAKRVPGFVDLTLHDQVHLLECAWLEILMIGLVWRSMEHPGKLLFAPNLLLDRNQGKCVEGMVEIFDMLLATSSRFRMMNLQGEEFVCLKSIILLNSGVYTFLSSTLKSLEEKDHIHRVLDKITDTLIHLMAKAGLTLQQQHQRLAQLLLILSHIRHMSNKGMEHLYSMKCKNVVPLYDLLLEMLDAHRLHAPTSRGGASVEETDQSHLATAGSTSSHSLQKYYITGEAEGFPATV

Dopamine D1 = molecular target: T3, Dopamine D1 (Homo sapiens, UniProt P21728); experiment: Radioligand displacement (Ricerca); assay type: binding
T3 construct: Ricerca
T3 sequence (P21728 whole entry): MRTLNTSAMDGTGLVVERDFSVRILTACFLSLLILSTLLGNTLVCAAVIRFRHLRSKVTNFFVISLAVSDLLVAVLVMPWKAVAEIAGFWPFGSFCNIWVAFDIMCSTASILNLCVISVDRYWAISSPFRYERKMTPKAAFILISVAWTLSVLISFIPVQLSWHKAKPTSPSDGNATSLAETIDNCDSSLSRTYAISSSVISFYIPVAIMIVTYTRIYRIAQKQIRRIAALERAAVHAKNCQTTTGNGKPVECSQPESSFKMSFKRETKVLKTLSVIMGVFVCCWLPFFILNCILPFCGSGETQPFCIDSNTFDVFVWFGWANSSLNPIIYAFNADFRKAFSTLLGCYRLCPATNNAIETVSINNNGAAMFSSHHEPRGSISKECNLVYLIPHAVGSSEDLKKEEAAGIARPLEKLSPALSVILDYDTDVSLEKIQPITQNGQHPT

hERG potassium channel = molecular target: T4, hERG potassium channel (Homo sapiens, UniProt Q12809); experiment: Thallium flux assay, hERG-expressing cells; assay type: cell-based; conditions: hERG inhibition, thallium flux
T4 construct: expressed in transfected cells; host or cells: T-REx-293
T4 sequence (Q12809 whole entry): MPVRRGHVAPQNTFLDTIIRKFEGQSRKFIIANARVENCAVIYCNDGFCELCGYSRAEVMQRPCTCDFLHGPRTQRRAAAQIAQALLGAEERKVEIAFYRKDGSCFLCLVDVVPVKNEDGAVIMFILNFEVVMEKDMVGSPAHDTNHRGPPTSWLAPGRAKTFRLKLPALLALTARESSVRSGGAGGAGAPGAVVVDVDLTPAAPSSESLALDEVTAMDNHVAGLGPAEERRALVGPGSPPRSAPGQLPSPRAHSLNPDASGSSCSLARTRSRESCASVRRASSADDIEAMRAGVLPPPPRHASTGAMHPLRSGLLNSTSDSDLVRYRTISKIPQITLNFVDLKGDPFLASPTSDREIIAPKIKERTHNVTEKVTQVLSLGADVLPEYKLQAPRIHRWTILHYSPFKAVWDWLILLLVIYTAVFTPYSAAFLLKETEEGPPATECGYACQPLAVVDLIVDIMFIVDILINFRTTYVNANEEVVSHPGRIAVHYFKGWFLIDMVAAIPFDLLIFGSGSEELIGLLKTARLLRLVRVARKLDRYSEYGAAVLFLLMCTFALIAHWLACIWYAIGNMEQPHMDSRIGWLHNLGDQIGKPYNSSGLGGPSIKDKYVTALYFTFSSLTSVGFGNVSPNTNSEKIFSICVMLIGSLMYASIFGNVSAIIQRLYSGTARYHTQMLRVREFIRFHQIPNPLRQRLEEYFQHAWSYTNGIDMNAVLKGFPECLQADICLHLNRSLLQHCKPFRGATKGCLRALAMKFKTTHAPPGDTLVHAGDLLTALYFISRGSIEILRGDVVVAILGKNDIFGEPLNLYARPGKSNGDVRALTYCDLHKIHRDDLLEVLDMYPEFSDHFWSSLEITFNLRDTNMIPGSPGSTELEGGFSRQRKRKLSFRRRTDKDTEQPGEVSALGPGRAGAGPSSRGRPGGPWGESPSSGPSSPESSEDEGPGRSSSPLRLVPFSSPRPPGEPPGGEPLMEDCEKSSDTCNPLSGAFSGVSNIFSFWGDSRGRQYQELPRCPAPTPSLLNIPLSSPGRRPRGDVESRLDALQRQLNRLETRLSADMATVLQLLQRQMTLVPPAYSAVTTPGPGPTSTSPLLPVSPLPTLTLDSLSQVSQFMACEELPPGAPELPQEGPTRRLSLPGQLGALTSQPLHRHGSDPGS
From the text: (§1) Cell Line Construction and Cell Culture. HEK-293 cells co-expressing human GIRK1/2 and rat mGlu8 were generated as previously described (Niswender et al., 2008). A HEK-293 cell line (ATCC, Manassas, Va.) expressing human GIRK1 and human GIRK2 was constructed by transfecting HEK-293 cells with GIRK1 and GIRK2 (Origene, Rockville, Md.) cloned into the pBudCE4.1 vector (Life Technologies, Carlsbad, Calif.) using FuGene 6 (Promega, Madison, Wis.) transfection reagent. Unless otherwise noted, other ion channel-expressing cells were prepared by transfecting HEK-293 cells with individual or combinations of subunits: GIRK1, pCMV6-A-BSD; GIRK2, pCMV6-A-puro; GIRK3, pCMV6-A-hygro; GIRK4, pCMV6-A-AC; Kv7.4, pIRESneo3. The Kir2.1 and hERG-expressing cell lines were made by transfecting T-REx-293 cells (Life Technologies, Carlsbad, Calif.) with Kir2.1 and Kv11.1, respectively, cloned into pcDNA5TO. Monoclonal cell lines were produced by limiting-dilution cloning of antibiotic-resistant cells and functional selection using the thallium flux assay described below. Unless otherwise noted, cells were maintained in Minimal Essential Medium, Alpha Medium (Mediatech, Manassas, Va.) supplemented with 10% fetal bovine serum (Sigma-Aldrich, Saint Louis, Mo.) and GlutaGro (Mediatech, Manassas, Va.), referred to henceforth as cell culture medium. Cell culture medium was further supplemented with selection antibiotics, as appropriate.
(§2) For thallium flux assays, cells were dislodged from tissue culture flasks using TrypLE Express (Life Technologies, Carlsbad, Calif.), transferred to a 50 mL centrifuge tube, and spun at 500×g for 2 min. The supernatant solution was removed by aspiration and the pellet was resuspended at concentration of ˜1000 cells/μL. Twenty μL/well of the cell suspension was transferred to 384-well, amine-coated assay plates (cat#354719, BD, Franklin Lakes, N.J.) using an electronic multichannel pipette. Plated cells were incubated overnight in a humidified 5% CO2 cell culture incubator at 37° C. […]

hERG (Kv11.1) = molecular target: T5, hERG (Kv11.1) (Homo sapiens, UniProt Q12809); experiment: Thallium flux assay, hERG-expressing cells; assay type: cell-based; conditions: human, T-REx-293 cells expressing hERG (Kv11.1), pH 7.3, at 100 μM; 100% inhibition defined by maximally effective dofetilide; read-out: maximum inhibition of hERG
T5 construct: expressed in transfected cells; host or cells: T-REx-293
T5 sequence (Q12809 whole entry): as above
From the text: as §1, §2

## Cc1cc(NC(=O)Nc2ccc(F)c(F)c2)n(-c2ccccc2)n1 [VU0456810, 1-(3,4-difluorophenyl)-3-(3-methyl-1-phenyl-1H-pyrazol-5-yl)urea]
Nicotinic acetylcholine
  % Inhibition: 7%
Dopamine D4.2
  inhibition at 10 µM: 4%
Estrogen ERα
  inhibition at 10 µM: 1%
Dopamine D1
  inhibition at 10 µM: -5%
hERG potassium channel; read-out: IC50
  IC50: ~10 µM
hERG potassium channel; average ± SEM, read-out: Potency
  IC50: 10.1 ± 7 µM
hERG (Kv11.1)
  inhibition at 20 min, 100 µM: ~60%
